The values that follow come from patent US8354419B2, “Benzimidazole analogues for the treatment or prevention of flavivirus infections” (Vertex Pharmaceuticals Incorporated, priority 2009, dated 2013).

The test system of the assay is HCV (Ib) RNA replication. Put plainly: Cell-based luciferase reporter HCV (1b) RNA replication assay (replicon cell lines Huh-7 5.2 and ET). On the set-up: species or system Hepatitis C virus. Conditions: Hepatitis C virus, Huh-7, 96 h, HCV 1b genotype replicon, luciferase readout, 4 days incubation; read-out: EC50_1b. From the text:
Cell-Based Luciferase Reporter HCV (Ib) RNA Replication Assay Cell Culture
Replicon cell lines Huh-7, 5.2 and ET which are derived from the Huh-7 hepatocarcinoma cell line are maintained in culture as generally described in Krieger, N; Lohmann, V; Bartenschlager, R. Enhancement of hepatitis C virus RNA replication by cell culture-adaptive mutations. J. Virol. 2001, 75, 4614-4624. The Huh-7, 5.2 cells contain the highly cell culture-adapted replicon I389luc-ubi-neo/NS3-3′/5.1 construct that carries, in addition to the neomycin gene, an integrated copy to the firefly luciferase gene (Krieger, N; Lohmann, V; Bartenschlager, R. Enhancement of hepatitis C virus RNA replication by cell culture-adaptive mutations. J. Virol. 2001, 75, 4614-4624). This cell line allows measurement of HCV RNA replication and translation by measuring luciferase activity. It has been previously shown that the luciferase activity tightly follows the replicon RNA level in these cells (Krieger, N; Lohmann, V; Bartenschlager, R. Enhancement of hepatitis C virus RNA replication by cell culture-adaptive mutations. J. Virol. 2001, 75, 4614-4624). The Huh-7, ET cell line has the same features as those mentioned for Huh-7, 5.2 cell line, except that ET cells are more robust and contain an adaptative mutation in the HCV NS4B gene instead of NS5A. Both cell lines are maintained in cultures at a sub-confluent level (<85%) as the level of replicon RNA is highest in actively proliferating cells. The culture media used for cell passaging consist of DMEM (Gibco BRL Laboratories, Mississauga, ON, Canada) supplemented with 10% foetal bovine serum with 1% penicillin/streptomycin, 1% glutamine, 1% sodium pyruvate, 1% non-essential amino acids, and 180 ug/ml of G418 final concentration. Cells are incubated at 37° C., in an atmosphere of 5% CO2 and passaged twice a week to maintain sub-confluence.
Approximately 3000 viable Huh-7, 5.2 or ET cells (100 μl) are plated per well in a white opaque 96-well microtiter plate. The cell culture media used for the assay is the same as described above except that it contains no G418 and no phenol red. After an incubation period of 3-4 hours at 37° C. in a 5% CO2 incubator, compounds (100 μl) are added at various concentrations. Cells are then further incubated for 4 days at 37° C. in a 5% CO2 incubator. Thereafter, the culture media is removed and cells are lysed by the addition of 95 μL of the luciferase buffer (luciferin substrate in buffered detergent). Cell lysates are incubated at room temperature and protected from direct light for at least 10 minutes. Plates are read for luciferase counts using a luminometer (Wallac MicroBeta Trilux, Perkin ELmer™, MA, USA).
The 50% inhibitory concentrations (IC50s) for inhibitory effect are determined from dose response curves using eleven concentrations per compound in duplicate. Curves are fitted to data points using nonlinear regression analysis, and IC50s are interpolated from the resulting curve using GraphPad Prism software, version 2.0 (GraphPad Software Inc., San Diego, Calif., USA).
Table 2 show compounds representative of the present invention and the EC50 values against the HCV 1b genotype.
Background: In a reporter assay the amount or activity of a reporter protein is the signal.

pEC50: −log10 of the molar value. A value given as a limit tells only on which side of the number the result lay.

With `COC(=O)NC(C(=O)N1C[C@H](O)C[C@H]1c1nc2ccc(-c3ccc(-c4ccc5[nH]c([C@@H]6C[C@@H](O)CN6C(=O)[C@@H](NC(=O)OC)C(C)C)nc5c4)cc3)cc2[nH]1)C(C)C` (stereo in doubt) [Compound 26, ((S)-1-{(2S,4R)-4-Hydroxy-2-[5-(4-{2-[(2S,4R)-4-hydroxy-1-((S)-2-methoxycarbonylamino-3-methyl-butyryl)-pyrrolidin-2-yl]-1H-benzoimidazol-5-yl}-phenyl)-1H-benzoimidazol-2-yl]-pyrrolidine-1-carbonyl}-2-methyl-propyl)-carbamic acid methyl ester], the pEC50 is not below 8.30. With `COC(=O)N[C@H](C(=O)N1CCC[C@H]1c1nc2cc(-c3ccc(-c4ccc5nc([C@@H]6CCCN6C(=O)[C@@H](NC(=O)OC)C(C)C)[nH]c5c4)cc3)ccc2[nH]1)C(C)C` [Compound 1, ((S)-1-{(S)-2-[5-(4-{2-[(S)-1-((S)-2-Methoxycarbonylamino-3-methyl-butyryl)-pyrrolidin-2-yl]-1H-benzoimidazol-5-yl}-phenyl)-1H-benzoimidazol-2-yl]-pyrrolidine-1-carbonyl}-2-methyl-propyl)-carbamic acid methyl ester], the pEC50 was not below 8.30. `COC(=O)N[C@H](C(=O)N1CCC[C@H]1c1nc2ccc(-c3cccc(-c4ccc5nc([C@@H]6CCCN6C(=O)[C@@H](NC(=O)OC)C(C)C)[nH]c5c4)c3)cc2[nH]1)C(C)C` [Compound 2, ((S)-1-{(S)-2-[5-(3-{2-[(S)-1-((S)-2-Methoxycarbonylamino-3-methyl-butyryl)-pyrrolidin-2-yl]-1H-benzoimidazol-5-yl}-phenyl)-1H-benzoimidazol-2-yl]-pyrrolidine-1-carbonyl}-2-methyl-propyl)-carbamic acid methyl ester]: the pEC50 is 5.30 to 8.30. To `COC(=O)N[C@H](C(=O)N1CC(F)(F)C[C@H]1c1nc2cc(-c3ccc(-c4ccc5nc([C@@H]6CC(F)(F)CN6C(=O)[C@@H](NC(=O)OC)C(C)C)[nH]c5c4)cc3)ccc2[nH]1)C(C)C` [Compound 3, ((S)-1-{(S)-2-[5-(4-{2-[(S)-4,4-Difluoro-1-((S)-2-methoxycarbonylamino-3-methyl-butyryl)-pyrrolidin-2-yl]-1H-benzoimidazol-5-yl}-phenyl)-1H-benzoimidazol-2-yl]-4,4-difluoro-pyrrolidine-1-carbonyl}-2-methyl-propyl)-carbamic acid methyl ester] belongs not below 8.30; to `COC(=O)N(C)[C@H](C(=O)N1CCC[C@H]1c1nc2cc(-c3ccc(-c4ccc5nc([C@@H]6CCCN6C(=O)[C@H](C(C)C)N(C)C(=O)OC)[nH]c5c4)cc3)ccc2[nH]1)C(C)C` [Compound 4, [(S)-1-((S)-2-{5-[4-(2-{(S)-1-[(S)-2-(Methoxycarbonyl-methyl-amino)-3-methyl-butyryl]-pyrrolidin-2-yl}-1H-benzoimidazol-5-yl)-phenyl]-1H-benzoimidazol-2-yl}-pyrrolidine-1-carbonyl)-2-methyl-propyl]-methyl-carbamic acid methyl ester], not below 8.30. On to `COC(=O)N[C@H](C(=O)N1CCC[C@H]1c1nc2cc(-c3ccc(-c4ccc5nc([C@@H]6CCCN6C(=O)[C@@H](NC(=O)OC)C(C)C)[nH]c5c4)cc3C#N)ccc2[nH]1)C(C)C` [Compound 5, ((S)-1-{(S)-2-[5-(2-Cyano-4-{2-[(S)-1-((S)-2-methoxycarbonylamino-3-methyl-butyryl)-pyrrolidin-2-yl]-1H-benzoimidazol-5-yl}-phenyl)-1H-benzoimidazol-2-yl]-pyrrolidine-1-carbonyl}-2-methyl-propyl)-carbamic acid methyl ester], for which the pEC50 is not below 8.30.

For the compound `COC(=O)N[C@H](C(=O)N1CCC[C@H]1c1nc2cc(-c3ccc(-c4ccc5nc([C@@H]6CCCN6C(=O)[C@@H](NC(=O)OC)C(C)C)[nH]c5c4)cn3)ccc2[nH]1)C(C)C` [Compound 6, ((S)-1-{(S)-2-[5-(5-{2-[(S)-1-((S)-2-Methoxycarbonylamino-3-methyl-butyryl)-pyrrolidin-2-yl]-1H-benzoimidazol-5-yl}-pyridin-2-yl)-1H-benzoimidazol-2-yl]-pyrrolidine-1-carbonyl}-2-methyl-propyl)-carbamic acid methyl ester], the pEC50 was not below 8.30. Consider `COC(=O)N[C@H](C(=O)N1CCC[C@H]1c1nc2cc(-c3ccc(-c4ccc5nc([C@@H]6CCCN6C(=O)[C@@H](NC(=O)OC)C(C)C)[nH]c5c4)cc3C)ccc2[nH]1)C(C)C` [Compound 7, ((S)-1-{(S)-2-[5-(4-{2-[(S)-1-((S)-2-Methoxycarbonylamino-3-methyl-butyryl)-pyrrolidin-2-yl]-1H-benzoimidazol-5-yl}-2-methyl-phenyl)-1H-benzoimidazol-2-yl]-pyrrolidine-1-carbonyl}-2-methyl-propyl)-carbamic acid methyl ester], for which the pEC50 is not below 8.30. For the compound `COC(=O)N[C@H](C(=O)N1CCC[C@H]1c1nc2cc(-c3ccc(-c4ccc5nc([C@@H]6CCCN6C(=O)[C@@H](NC(=O)OC)C(C)C)[nH]c5c4)cc3OC)ccc2[nH]1)C(C)C` [Compound 8, ((S)-1-{(S)-2-[5-(2-Methoxy-4-{2-[(S)-1-((S)-2-methoxycarbonylamino-3-methyl-butyryl)-pyrrolidin-2-yl]-1H-benzoimidazol-5-yl}-phenyl)-1H-benzoimidazol-2-yl]-pyrrolidine-1-carbonyl}-2-methyl-propyl)-carbamic acid methyl ester], the pEC50 was not below 8.30. `COC(=O)N[C@H](C(=O)N1CCC[C@H]1c1nc2cc(-c3ccc(-c4ccc5nc([C@@H]6CCCN6C(=O)[C@@H](NC(=O)OC)C(C)C)[nH]c5c4)cc3F)ccc2[nH]1)C(C)C` [Compound 9, ((S)-1-{(S)-2-[5-(2-Fluoro-4-{2-[(S)-1-((S)-2-methoxycarbonylamino-3-methyl-butyryl)-pyrrolidin-2-yl]-1H-benzoimidazol-5-yl}-phenyl)-1H-benzoimidazol-2-yl]-pyrrolidine-1-carbonyl}-2-methyl-propyl)-carbamic acid methyl ester]: the pEC50 is not below 8.30.

As for `COC(=O)N[C@H](C(=O)N1CCC[C@H]1c1nc2cc(-c3ccc(-c4ccc5[nH]c([C@@H]6CCCN6C(=O)[C@@H](NC(=O)OC)C(C)C)nc5c4)c(Cl)c3)ccc2[nH]1)C(C)C` [Compound 10, ((S)-1-{(S)-2-[5-(2-Chloro-4-{2-[(S)-1-((S)-2-methoxycarbonylamino-3-methyl-butyryl)-pyrrolidin-2-yl]-1H-benzoimidazol-5-yl}-phenyl)-1H-benzoimidazol-2-yl]-pyrrolidine-1-carbonyl}-2-methyl-propyl)-carbamic acid methyl ester], the pEC50 is not below 8.30. Turning to `COC(=O)N[C@H](C(=O)N1CCC[C@H]1c1nc2cc(-c3ccc(-c4ccc5[nH]c([C@@H]6CCCN6C(=O)[C@@H](NC(=O)OC)C(C)C)nc5c4)c(C#N)n3)ccc2[nH]1)C(C)C` [Compound 11, ((S)-1-{(S)-2-[5-(2-Cyano-6-{2-[(S)-1-((S)-2-methoxycarbonylamino-3-methyl-butyryl)-pyrrolidin-2-yl]-1H-benzoimidazol-5-yl}-pyridin-3-yl)-1H-benzoimidazol-2-yl]-pyrrolidine-1-carbonyl}-2-methyl-propyl)-carbamicacid methyl ester], the pEC50 was 5.30 to 8.30. On to `COC(=O)N[C@H](C(=O)N1CCC[C@H]1c1nc2ccc(-c3cc(OC)c(-c4ccc5nc([C@@H]6CCCN6C(=O)[C@@H](NC(=O)OC)C(C)C)[nH]c5c4)cc3OC)cc2[nH]1)C(C)C` [Compound 12], for which the pEC50 was not below 8.30.

Take `COC(=O)N[C@H](C(=O)N1CCC[C@H]1c1nc2cc(-c3ccc(-c4ccc5[nH]c([C@@H]6CCCN6C(=O)[C@@H](NC(=O)OC)C(C)C)nc5c4)c(C)c3C)ccc2[nH]1)C(C)C` [Compound 13, ((S)-1-{(S)-2-[5-(4-{2-[(S)-1-((S)-2-Methoxycarbonylamino-3-methyl-butyryl)-pyrrolidin-2-yl]-1H-benzoimidazol-5-yl}-2,3-dimethyl-phenyl)-1H-benzoimidazol-2-yl]-pyrrolidine-1-carbonyl}-2-methyl-propyl)-carbamic acid methyl ester]: the pEC50 is not below 8.30.
